Values joined by “and” are separate entries in the source; they are usually repeats but may differ in a detail not shown here. Identical values can stand only once. Like-named read-outs stand apart in the source and are kept apart here.
Experiments:
[1] = target: T1, Human leukocyte elastase (HLE-G) (Homo sapiens, UniProt P08246); assay: Inhibition of HLE-G enzymatic activity; type: biochemical; conditions: for IC50: compound vs. HLE-G (75 µM), 10 min at 37°C, 5 min with substrate; for HLE-G Molar excess: molar excess of compound to HLE-G at IC50
T1 construct: purchased Athens Research & Technology 16-14-051200
T1 sequence (P08246 30-267): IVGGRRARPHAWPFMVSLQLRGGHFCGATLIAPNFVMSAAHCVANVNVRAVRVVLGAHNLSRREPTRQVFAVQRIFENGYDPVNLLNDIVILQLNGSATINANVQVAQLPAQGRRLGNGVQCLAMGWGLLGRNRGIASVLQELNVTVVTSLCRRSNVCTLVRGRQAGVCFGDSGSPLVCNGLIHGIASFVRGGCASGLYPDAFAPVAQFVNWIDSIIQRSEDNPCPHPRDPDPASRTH
Description: Inhibition of HLE-G enzymatic activity. Two-fold serial dilutions of HLE-G in 100 µl Tris-buffered saline (pH 7.8) were added to rows of wells of a microtiter plate as previously described ([Bristow et al., 1991]). […] The microtiter plate was incubated for 10 min at 37°C. The HLE-G substrate (Succinyl-L-Ala-L-Ala-L-Ala-p-nitroanilide, Sigma) was added to all wells, and absorbance at 405 nm was detected kinetically at 23°C using an MRX plate reader.

[2] = target: T2, cell surface human leukocyte elastase (HLE-CS) on U937 Clone 10 cells (Homo sapiens, UniProt P08246); assay: Cellular adherence to glass (HLE-CS interaction); type: cell-based; conditions: 2,000 U937 cells per well; for HLE-CS Adherent cells: at optimal concentration; for HLE-CS Optimal concentration: optimal adherence concentration
T2 construct: endogenous in cells; host or cells: human U937 Clone 10 cells
T2 sequence (P08246 30-267): T1 sequence (P08246 30-267)
From the text: Cellular adherence. […] […] Unattached cells were removed by washing using AIM-V, and attached cells were fixed by application of 4% paraformaldehyde. Attached cells were counted by light microscopy.

[3] = parameters: method as in Nissen et al., 2016; conditions: ref Nissen et al., 2016, cited from earlier work
[4] = Diet-induced obesity (DIO) mouse model, lipoprotein levels; type: in vivo, C57BL/6J mice; conditions: 60% fat diet, daily oral gavage; for LDL levels: after 3 weeks, ezetimibe 10 mg/kg, Alphataxin 5 mg/kg; for LDL levels / triglyceride levels: vs vehicle control; for triglyceride levels: weeks 3, 6, 8
Description: Animal Studies. Animal studies were performed by Jackson Laboratory (Bar Harbor, ME), an OLAW-Assured and AAALAC accredited institution. All research was reviewed and approved by the Institutional Animal Care and Use Committee (IACUC) prior to commencing. The study used 16–17 weeks old male DIO C57BL/6J mice that had been maintained on a 10% (control) or 60% high-fat diet. […] Treatment was delivered by daily oral gavage at the same time of day for 12 weeks. Blood was collected by retro-orbital bleed every 3 weeks for measurement of total cholesterol, LDL, HDL, triglycerides, […] free fatty acids and glucose using the Beckman Coulter AU680 Chemistry System.
Food consumption was monitored twice weekly, and body weight was monitored weekly. As mice gained weight on the 60% high-fat diet during the study, dosing was adjusted accordingly. Mice were monitored for adverse effects (e.g., labored breathing, aberrant weight change). Three mice were lost during the study. […] The mice lost in the ezetimibe group were due to a severe bite wound and an unknown causes. The mouse lost in the Alphataxin group was due to an abnormal amount of gas in the stomach attributed to a gavaging error.

[5] = test system: Leishmania amazonensis promastigotes; parameters: method as in Andrade-Neto et al., 2016; conditions: ref Andrade-Neto et al., 2016; read-out: IC50 for killing Leishmania amazonensis promastigotes; cited from earlier work
Lactobacillus spp. = test system: Lactobacillus spp.; parameters: method as in Catry et al., 2015; conditions: ref Catry et al., 2015; cited from earlier work
[6] = type: in vivo, human; conditions: HIV-1-infected, 8 weekly infusions 120 mg/kg
Description: Clinical trial NCT01731691: This clinical trial was a double-blind, randomized study as previously described ([Bristow et al., 2019]). Written informed consent was received from 12 individuals, 8 HIV-1-infected individuals and 4 uninfected controls. Blood was collected weekly at the same time of day at baseline and for 8 subsequent weeks from uninfected, untreated controls and from HIV-1-infected individuals who were treated weekly with Prolastin-C (n = 3) or with placebo (n = 5). […] Inclusion criteria HIV-1 uninfected, untreated controls were the same as for HIV-1 infected subjects excluding HIV-related criteria. Grifols Biotherapeutics contributed a sufficient quantity of Prolastin-C (lot# 26NLK52) for administration of 8 weekly infusions at a dose of 120 mg/kg. The study protocol was approved by Copernicus Group Independent Institutional Review Board, Durham, NC. Drug delivery and blood collection were performed at ACRIA, New York, NY.
Human apolipoproteins measurement. Total cholesterol, high density lipoprotein (HDL), low density lipoprotein (LDL), triglycerides, apolipoprotein E (apoE), and apolipoprotein A1 (apoA1) measurements were performed by ICON Central Laboratory, Farmingdale, NY. Cholesterol, HDL, and triglycerides were measured using the Chol2, HDLC3, TRIGL methods on the Roche/Hitachi cobas c analyzer. LDL was calculated using the formula total cholesterol – HDL – (triglycerides/5). ApoE was quantitated using the Kamiya Biomedical Co. K-assay immunoturbidimetric method. ApoA1 was quantitated using the Siemens N antisera method by immunonephelometry on the BN II and BN ProSpec System. Total apoB and apoB48 measurements were contracted by ICON Central Laboratory to Nexelis (formerly Pacific Biomarkers). Total apoB was measured in serum by immunoturbidimetry using the Roche Modular P instrument and Goat polyclonal antibody specific for human apoB. ApoB48 wase measured by sandwich ELISA using a capture monoclonal antibody and detection using a biotin-conjugated polyclonal antibody followed by HRP-conjugated Streptavidin and addition of a chromogenic substrate using a SoftMax Pro ELISA plate reader. ApoB100 was calculated as total apoB minus apoB48. Cholesterol, triglycerides, HDL, LDL, apoE and apoA1 were measured by ICON Central Laboratory, Farmingdale, NY.

U937 Clone 10 cells = assay: Receptor polarization and endocytosis of SHIV; type: cell-based, human; conditions: for SHIV localization: cells preconditioned 15 min 37°C
Description: Receptor Polarization and Endocytosis. To Eppendorf tubes that been precoated with RPMI-1640 containing 10% fetal bovine serum to prevent attachment, were added 250 μl containing 5 × 10^5 U937 Clone 10 cells.
U937 Clone 10 cells were pulsed with SHIV particles (30 ng p27 or p24 per 10^6 cells) for 2 h at 2°C, a circumstance that allows binding, but prevents endocytosis. Alternatively, cells were pulsed with virus for 2 h at 37°C, a circumstance that allows binding and endocytosis ([Bristow et al., 2012]). Following pulsing for 2 h, cells were pelleted, resuspended in AIM-V and allowed to adhere to Alcian blue coated microscope slides for 8 min at 4°C, washed, and fixed using 4% paraformaldehyde as previously described ([Frank et al., 2002]). The presence of AT-2 virus in test cells was detected using dodecameric human CD4-IgG1 provided by the Laboratory of Immunoregulation, NIAID, NIH. This reagent specifically recognizes conformationally intact HIV/SIV envelope gp120. CD4-IgG1 was detected using rabbit anti-human IgG conjugated with horse radish peroxidase (SigmaAldrich). CD4-IgG-labeled cells were coupled to Oregon 488 fluorochrome using the tyramide signal amplification system (Life Science Products, Boston, MA, United States). In some cases, cells stained on slides were permeabilized using 0.05% saponin during the blocking step and further stained with the nuclear staining dye, 4′,6-diamidino-2-phenylindole (DAPI), mounted, and examined by epifluorescence microscopy using a Zeiss Axioplan to detect positive and negative reactions. Representative samples of positive and negative reactions were subsequently captured by confocal microscopy using a Perkin Elmer Operetta High Content Imaging System. Cells were analyzed by confocal microscopy using 2 μm scanning from the attached surface toward the unattached surface.

E. coli DH5-Alpha = assay: Kirby-Bauer Disk Test of antibiotic activity; type: cell-based; conditions: for diameter of zone of inhibition: 16 h at 37°C; for inhibitory dose: disk test
Description: Antibiotic activity. […] D-Ampicillin-sensitive E. coli DH5-Alpha was cultured overnight in LB broth, and the cell concentration was calibrated using McFarland Turbidity Standard […] for <300 × 10^6 CFU. At this concentration of cells, bacteria were spread on Mueller-Hinton agar plates. […] After incubation for 16 h at 37°C, plates were examined for zones of inhibition.

## C[C@H]1[C@H](NC(=O)/C(=N\OC(C)(C)C(=O)O)c2csc(N)n2)C(=O)N1S(=O)(=O)O [Aztreonam]
[1]
  IC50: 234 µM
  HLE-G Molar excess: 3.1
[2]
  HLE-CS Adherent cells: 33 ± 4
  HLE-CS Optimal concentration: 1 nM

## O=C1[C@H](CC[C@H](O)c2ccc(F)cc2)[C@@H](c2ccc(O)cc2)N1c1ccc(F)cc1 [Ezetimibe]
[3]; p < 0.001
  effectiveness in lowering LDL levels vs PCSK9 inhibitors: significantly less effective
[3]
  individuals with muscle symptoms: 28%
[4]
  LDL levels: significantly decreased
  triglyceride levels: did not
[5]
  IC50: 30 µM
Lactobacillus spp.
  effect on intestinal microbiome: increasing the Lactobacillus spp.
[1]
  IC50: 277 µM
  HLE-G Molar excess: 3.7
[2]
  HLE-CS Adherent cells: 40 ± 3
  HLE-CS Optimal concentration: 100 nM

## C[C@@H](O)[C@H]1C(=O)N2C(C(=O)O)=C([C@H]3CCCO3)S[C@H]12 [Faropenem]
[1]
  IC50: 203 µM
  HLE-G Molar excess: 2.7
[2]
  HLE-CS Adherent cells: 23 ± 4
  HLE-CS Optimal concentration: 10 nM

## CC1(C)S[C@@H]2[C@H](NC(=O)[C@H](N)c3ccc(O)cc3)C(=O)N2[C@H]1C(=O)O [Amoxicillin]
[2]
  HLE-CS Adherent cells: 54 ± 20
  HLE-CS Optimal concentration: 1 nM

## CC1=C(C(=O)O)N2C(=O)[C@@H](NC(=O)[C@H](N)c3ccccc3)[C@H]2SC1 [Cephalexin]
[2]
  HLE-CS Adherent cells: 27 ± 10

## Prolastin-C: sterile plasma-purified α1PI preparation from Grifols, lot# 26NLK52, infused weekly at 120 mg/kg
[6]
  HDL levels: decreased from above normal to below normal levels
  apoA1 levels: decreased from above normal to below normal levels
  apoB48 levels: decreased from above normal to below normal levels
  apoB100 levels: did not significantly decrease
  apoE levels: decreased from above normal to normal levels
  total cholesterol levels: decreased from above normal to normal levels
  triglycerides levels: decreased from above normal to normal levels
[6]; vs placebo arm
  LDL levels: significantly lower than in the placebo arm

## CC1(C)S[C@@H]2[C@H](NC(=O)[C@@H](N)c3ccccc3)C(=O)N2[C@H]1C(=O)O [Alphataxin]
U937 Clone 10 cells
  cellular locomotion and endocytosis: mimics α1PI activity by binding to HLE-CS and inducing cellular locomotion and endocytosis
U937 Clone 10 cells; SHIV 2 h at 2°C
  SHIV localization: SHIV detected only on the exterior plasma membrane of polarized cells, never internalized into the cells
U937 Clone 10 cells; SHIV 2 h at 37°C
  SHIV localization: SHIV was detected internal to the cells
[4]
  LDL levels: significantly decreased
  triglyceride levels: significantly lowered
[4]; p = 0.90
  LDL lowering compared with ezetimibe: equivalent to ezetimibe
E. coli DH5-Alpha
  antibiotic effectiveness against E. coli: not an effective antibiotic against E. coli
  inhibitory dose: ≥ 0.05 mM and ≥ 17.5 μg/ml
E. coli DH5-Alpha; 0.05 mM
  diameter of zone of inhibition: 1.5 cm
E. coli DH5-Alpha; 0.5 mM
  diameter of zone of inhibition: 2.8 cm
E. coli DH5-Alpha; 5 mM (Figure 2 legend)
  diameter of zone of inhibition: 1.5 cm
E. coli DH5-Alpha; 50 mM (Figure 2 legend)
  diameter of zone of inhibition: 2.8 cm
E. coli DH5-Alpha; extrapolated from 10-fold greater minimum inhibitory dose than D-ampicillin
  MIC: ≥ 80 µg/mL

## C[C@@H](O)[C@H]1C(=O)N2C(C(=O)O)=C(S[C@@H]3CN[C@H](CNS(N)(=O)=O)C3)[C@H](C)[C@H]12 [Doripenem]
[1]
  IC50: 178 µM
  HLE-G Molar excess: 2.4
[2]
  HLE-CS Adherent cells: 52 ± 6
  HLE-CS Optimal concentration: 100 nM

## CC1(C)S[C@@H]2[C@H](NC(=O)[C@H](N)c3ccccc3)C(=O)N2[C@H]1C(=O)O [D-Ampicillin]
E. coli DH5-Alpha; 0.005 mM
  diameter of zone of inhibition: 1.4 cm
E. coli DH5-Alpha; 0.5 mM
  diameter of zone of inhibition: 3.8 cm
E. coli DH5-Alpha; 5 mM (Figure 2 legend)
  diameter of zone of inhibition: 3.0 cm
E. coli DH5-Alpha; 50 mM (Figure 2 legend)
  diameter of zone of inhibition: 3.8 cm
E. coli DH5-Alpha
  inhibitory dose: ≥ 0.005 mM and ≥ 1.75 μg/ml

## CC1(C)S[C@@H]2[C@H](NC(=O)COc3ccccc3)C(=O)N2[C@H]1C(=O)O [Pen V, Penicillin V]
[1]
  IC50: 262 µM
  HLE-G Molar excess: 3.5
[2]
  HLE-CS Adherent cells: 30 ± 4
  HLE-CS Optimal concentration: 10 nM

## CO/N=C(\C(=O)N[C@@H]1C(=O)N2C(C(=O)O)=C(COC(N)=O)CS[C@H]12)c1ccco1 [Cefuroxine, Cefuroxime]
[1]
  IC50: 167 µM
  HLE-G Molar excess: 2.2
[2]
  HLE-CS Adherent cells: 34 ± 8
  HLE-CS Optimal concentration: 1 nM

## Cc1onc(-c2c(Cl)cccc2Cl)c1C(=O)N[C@@H]1C(=O)N2[C@@H]1SC(C)(C)[C@@H]2C(=O)O [Dicloxacillin]
[1]
  IC50: 232 µM
  HLE-G Molar excess: 3.1
[2]
  HLE-CS Adherent cells: 26 ± 9
  HLE-CS Optimal concentration: 1 nM

Reference: PMC8220083 (Frontiers in Pharmacology, 2021)
